Like-named read-outs stand apart in the source and are kept apart here.
What was measured:
[1] = tested on: Jily; test: MTS proliferation assay, Jily; type: cell-based; details: 72 h incubation, read-out: MTS proliferation assay IC 50 Jily
In short: (§1)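 Viability after 72 h compound exposure at 10, 3, 1 and 0.3 μM final was scored by MTS absorbance (492 nm, 3 h reagent incubation), with cells kept in RPMI-1640 containing 5% or 10% fetal calf serum.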

[2] = tested on: MRC5; test: MTS proliferation assay, MRC5; type: cell-based; details: MRC5, 72 h incubation, read-out: MTS proliferation assay IC 50 MRC5
In short: as §1

[3] = tested on: Jurkat; test: MTS proliferation assay, Jurkat; type: cell-based, human; details: 72 h incubation, read-out: MTS proliferation assay IC 50 Jurkat
In short: (§2)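 Proliferation: RPMI-1640/FCS complete medium, 37 °C, 7.5% CO2, cells plated 24 h pre-dose; compounds at 10, 3, 1, 0.3 μM final for 72 h; MTS, 492 nm.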

[4] = tested on: adherent cells or suspension cells; test: Hoechst 33342 nuclear staining (fraction of apoptotic nuclei); type: cell-based; set-up: key: 0 relating to no activity; 1 relating to weak activity comprising less than 70% of the cells; score 2 relating to strong activity comprising more than 70% of the cells
[5] = tested on: HeLa; test: MTS proliferation assay, HeLa; type: cell-based, human; details: 72 h incubation, read-out: MTS proliferation assay IC 50 HeLa
In short: as §2

[6] = tested on: HT1080; test: MTS proliferation assay, HT1080; type: cell-based, human; details: HT1080, 72 h incubation, read-out: MTS proliferation assay IC 50 HT1080
In short: as §2

SMILES	IC50 [3]	IC50 [1]	IC50 [2]	Hoechst 33342 nuclear staining score ([4]; H460, conc 0.01 μm)	Hoechst 33342 nuclear staining score ([4]; H460, conc 0.1 μm)	Hoechst 33342 nuclear staining score ([4]; H460, conc 1 μm)	Hoechst 33342 nuclear staining score ([4]; HeLa, conc 0.01 μm)	Hoechst 33342 nuclear staining score ([4]; HeLa, conc 0.1 μm)	Hoechst 33342 nuclear staining score ([4]; HeLa, conc 1 μm)	Hoechst 33342 nuclear staining score ([4]; Jily, conc 0.01 μm)	Hoechst 33342 nuclear staining score ([4]; Jily, conc 0.1 μm)	Hoechst 33342 nuclear staining score ([4]; Jily, conc 1 μm)	Hoechst 33342 nuclear staining score ([4]; Jurkat, conc 0.01 μm)	Hoechst 33342 nuclear staining score ([4]; Jurkat, conc 0.1 μm)	Hoechst 33342 nuclear staining score ([4]; MRC5, conc 0.01 μm)	Hoechst 33342 nuclear staining score ([4]; MRC5, conc 0.1 μm)	Hoechst 33342 nuclear staining score ([4]; MRC5, conc 1 μm)	Hoechst 33342 nuclear staining score ([4]; PBLs, conc 0.01 μm)	Hoechst 33342 nuclear staining score ([4]; PBLs, conc 0.1 μm)	Hoechst 33342 nuclear staining score ([4]; PBLs, conc 1 μm)	other results
N#CCCNc1nonc1-c1nc2ccccc2n1CC(=O)c1ccc(Cl)cc1 [Example 6, 4-[1-(4-Chlorophenacyl)-1H-benzimidazol-2-yl]-furazan-3-yl-N-(2-cyanoethyl)-amine]		10 to 100 nM		0	2 (score 2 relating to strong activity comprising more than 70% of the cells)	2 (score 2 relating to strong activity comprising more than 70% of the cells)	0	2 (score 2 relating to strong activity comprising more than 70% of the cells)	2 (score 2 relating to strong activity comprising more than 70% of the cells)	2 (score 2 relating to strong activity comprising more than 70% of the cells)	2 (score 2 relating to strong activity comprising more than 70% of the cells)	2 (score 2 relating to strong activity comprising more than 70% of the cells)	2 (score 2 relating to strong activity comprising more than 70% of the cells)	2 (score 2 relating to strong activity comprising more than 70% of the cells)	2 (score 2 relating to strong activity comprising more than 70% of the cells)	2 (score 2 relating to strong activity comprising more than 70% of the cells)	2 (score 2 relating to strong activity comprising more than 70% of the cells)	0	0	0	IC50 ([2]; Homo sapiens): 100 to 1000 nM; IC50 ([3]; Homo sapiens): < 10 nM; Hoechst 33342 nuclear staining score ([4]; Jurkat, conc 1 μm): 2 (score 2 relating to strong activity comprising more than 70% of the cells); IC50 ([5]; Homo sapiens): 10 to 100 nM; IC50 ([6]; Homo sapiens, HT-1080): 10 to 100 nM
Nc1nonc1-c1nc2ccccc2n1CC(=NO)c1cccc(Cl)c1 (mixture of isomers) [Example 36]	10 to 100 nM	10 to 100 nM	100 to 1000 nM	0	0	0	0	0	0	0	0	0			0	0	0	0	0	0	IC50 [5]: 10 to 100 nM; IC50 [6]: 100 to 1000 nM

Continued, in another order:

IC50 [3]	SMILES	IC50 [1]	IC50 [2]	Hoechst 33342 nuclear staining score ([4]; H460, conc 0.01 μm)	Hoechst 33342 nuclear staining score ([4]; H460, conc 0.1 μm)	Hoechst 33342 nuclear staining score ([4]; H460, conc 1 μm)	Hoechst 33342 nuclear staining score ([4]; HeLa, conc 0.01 μm)	Hoechst 33342 nuclear staining score ([4]; HeLa, conc 0.1 μm)	Hoechst 33342 nuclear staining score ([4]; HeLa, conc 1 μm)	Hoechst 33342 nuclear staining score ([4]; Jily, conc 0.01 μm)	Hoechst 33342 nuclear staining score ([4]; Jily, conc 0.1 μm)	Hoechst 33342 nuclear staining score ([4]; Jily, conc 1 μm)	Hoechst 33342 nuclear staining score ([4]; Jurkat, conc 0.01 μm)	Hoechst 33342 nuclear staining score ([4]; Jurkat, conc 0.1 μm)	Hoechst 33342 nuclear staining score ([4]; MRC5, conc 0.01 μm)	Hoechst 33342 nuclear staining score ([4]; MRC5, conc 0.1 μm)	Hoechst 33342 nuclear staining score ([4]; MRC5, conc 1 μm)	Hoechst 33342 nuclear staining score ([4]; PBLs, conc 0.01 μm)	Hoechst 33342 nuclear staining score ([4]; PBLs, conc 0.1 μm)	Hoechst 33342 nuclear staining score ([4]; PBLs, conc 1 μm)	other results
10 to 100 nM	Nc1nonc1-c1nc2ccccc2n1COc1ccc(Cl)c(Cl)c1 [Example 92]	10 to 100 nM	100 to 1000 nM	0	2 (score 2 relating to strong activity comprising more than 70% of the cells)	2 (score 2 relating to strong activity comprising more than 70% of the cells)	0	2 (score 2 relating to strong activity comprising more than 70% of the cells)	2 (score 2 relating to strong activity comprising more than 70% of the cells)	0	2 (score 2 relating to strong activity comprising more than 70% of the cells)	2 (score 2 relating to strong activity comprising more than 70% of the cells)	0	2 (score 2 relating to strong activity comprising more than 70% of the cells)	0	2 (score 2 relating to strong activity comprising more than 70% of the cells)	2 (score 2 relating to strong activity comprising more than 70% of the cells)	0	0	0	Hoechst 33342 nuclear staining score ([4]; Jurkat, conc 1 μm): 2 (score 2 relating to strong activity comprising more than 70% of the cells); IC50 [5]: 10 to 100 nM; IC50 [6]: 10 to 100 nM
> 1000 nM	COc1cccc(/C=C/C(=O)Cn2c(-c3nonc3N)nc3ccccc32)c1 [Example 120]	> 1000 nM	> 1000 nM	0	0	0	0	0	0	0	0	0	0	0	0	0	0	0	0	0	Hoechst 33342 nuclear staining score ([4]; Jurkat, conc 1 μm): 0; IC50 [5]: > 1000 nM; IC50 [6]: > 1000 nM
10 to 100 nM	Nc1nonc1-c1nc2ccccc2n1CC(=O)c1ccc2c(c1)OCO2 [Example 45]	10 to 100 nM	100 to 1000 nM	0	2 (score 2 relating to strong activity comprising more than 70% of the cells)	2 (score 2 relating to strong activity comprising more than 70% of the cells)	0	1 (1 relating to weak activity comprising less than 70% of the cells)	2 (score 2 relating to strong activity comprising more than 70% of the cells)	0	2 (score 2 relating to strong activity comprising more than 70% of the cells)	2 (score 2 relating to strong activity comprising more than 70% of the cells)	0	2 (score 2 relating to strong activity comprising more than 70% of the cells)	0	0	2 (score 2 relating to strong activity comprising more than 70% of the cells)	0	0	0	Hoechst 33342 nuclear staining score ([4]; Jurkat, conc 1 μm): 2 (score 2 relating to strong activity comprising more than 70% of the cells); IC50 [5]: 10 to 100 nM; IC50 [6]: 10 to 100 nM
10 to 100 nM	Cl.Nc1ccc(C(=O)Cn2c(-c3nonc3N)nc3ccccc32)cc1 [Example 51]	10 to 100 nM	10 to 100 nM	0	2 (score 2 relating to strong activity comprising more than 70% of the cells)	2 (score 2 relating to strong activity comprising more than 70% of the cells)	0	2 (score 2 relating to strong activity comprising more than 70% of the cells)	2 (score 2 relating to strong activity comprising more than 70% of the cells)	0	2 (score 2 relating to strong activity comprising more than 70% of the cells)	2 (score 2 relating to strong activity comprising more than 70% of the cells)	1 (1 relating to weak activity comprising less than 70% of the cells)	2 (score 2 relating to strong activity comprising more than 70% of the cells)	0	2 (score 2 relating to strong activity comprising more than 70% of the cells)	2 (score 2 relating to strong activity comprising more than 70% of the cells)	0	0	0	Hoechst 33342 nuclear staining score ([4]; Jurkat, conc 1 μm): 2 (score 2 relating to strong activity comprising more than 70% of the cells); IC50 [5]: 10 to 100 nM; IC50 [6]: 10 to 100 nM
